US20050197350A1, “Novel quinoline, tetrahydroquinazoline, and pyrimidine derivatives and methods of treatment related to the use thereof” (TAISHO PHARMACEUTICAL CO., LTD., priority 2003, published 2005)

Each compound was assayed on MCH receptors (assay: MCH receptor activity class (method not given)). Conditions: class by percent of control at 10^-7 M or IC50.

| Compound | class |
| --- | --- |
| CN(C)c1ccnc(N[C@H]2CC[C@@H](NC(=O)c3ccccc3SC(F)F)CC2)n1 [compound 300] | 3 (Class 3 The value of percent of control at 10^−7 M was more than 60% or the value of IC50 was more than 200 nM.) |
| CN(C)c1ccnc(N[C@H]2CC[C@@H](NC(=O)c3cc(Cl)sc3Cl)CC2)n1 [compound 301] | 2 (Class 2: The value of percent of control at 10^−7 M was from 40% to 60% or the value of IC′50 was from 50 nM to 200 nM.) |
| CCCSc1ncccc1C(=O)N[C@H]1CC[C@@H](Nc2nccc(N(C)C)n2)CC1 [compound 302] | 3 (Class 3 The value of percent of control at 10^−7 M was more than 60% or the value of IC50 was more than 200 nM.) |
| CN(C)c1ccnc(N[C@H]2CC[C@@H](NC(=O)c3cc(C(C)(C)C)nn3Cc3ccccc3)CC2)n1 [compound 303] | 2 (Class 2: The value of percent of control at 10^−7 M was from 40% to 60% or the value of IC′50 was from 50 nM to 200 nM.) |
| CN(C)c1ccnc(N[C@H]2CC[C@@H](NC(=O)c3cc(C(C)(C)C)nn3C)CC2)n1 [compound 304] | 3 (Class 3 The value of percent of control at 10^−7 M was more than 60% or the value of IC50 was more than 200 nM.) |
| C/C(=C\c1ccccc1)C(=O)N[C@H]1CC[C@@H](Nc2nccc(N(C)C)n2)CC1 [compound 305] | 3 (Class 3 The value of percent of control at 10^−7 M was more than 60% or the value of IC50 was more than 200 nM.) |
| CN(C)c1ccnc(N[C@H]2CC[C@@H](NC(=O)c3cncc(Br)c3)CC2)n1 [compound 306] | 3 (Class 3 The value of percent of control at 10^−7 M was more than 60% or the value of IC50 was more than 200 nM.) |
| CN(C)c1ccnc(N[C@H]2CC[C@@H](NC(=O)Cc3cccc4ccccc34)CC2)n1 [compound 307, N-(cis-4-{[4-(dimethylamino)pyrimidin-2-yl]amino}cyclohexyl)-2-(1-naphthyl)acetamide] | 2 (Class 2: The value of percent of control at 10^−7 M was from 40% to 60% or the value of IC′50 was from 50 nM to 200 nM.) |
| Cc1cc(C(=O)N[C@H]2CC[C@@H](Nc3nccc(N(C)C)n3)CC2)nn1C(C)(C)C [compound 308] | 3 (Class 3 The value of percent of control at 10^−7 M was more than 60% or the value of IC50 was more than 200 nM.) |
| CN(C)c1ccnc(N[C@H]2CC[C@@H](NC(=O)c3csc4ccccc34)CC2)n1 [compound 309] | 3 (Class 3 The value of percent of control at 10^−7 M was more than 60% or the value of IC50 was more than 200 nM.) |
| CN(C)c1ccnc(N[C@H]2CC[C@@H](NC(=O)c3ccccc3)CC2)n1 [compound 311, N-(cis-4-{[4-(dimethylamino)pyrimidin-2-yl]amino}cyclohexyl)benzamide] | 3 (Class 3 The value of percent of control at 10^−7 M was more than 60% or the value of IC50 was more than 200 nM.) |
| CN(C)c1ccnc(N[C@H]2CC[C@@H](NC(=O)c3cc4ccccc4s3)CC2)n1 [compound 312] | 3 (Class 3 The value of percent of control at 10^−7 M was more than 60% or the value of IC50 was more than 200 nM.) |
| CN(C)c1ccnc(N[C@H]2CC[C@@H](NC(=O)COCc3ccccc3)CC2)n1 [compound 313] | 3 (Class 3 The value of percent of control at 10^−7 M was more than 60% or the value of IC50 was more than 200 nM.) |
| CN(C)c1ccnc(N[C@H]2CC[C@@H](NC(=O)COc3ccc(Cl)cc3)CC2)n1 [compound 314] | 1 (Class 1: The value of percent of control at 10^−7 M was less than 40% or the value of IC50 was less than 50 nM.) |
| CN(C)c1ccnc(N[C@H]2CC[C@@H](NC(=O)C3CCCCC3)CC2)n1 [compound 315] | 3 (Class 3 The value of percent of control at 10^−7 M was more than 60% or the value of IC50 was more than 200 nM.) |
| Cc1onc(-c2ccccc2Cl)c1C(=O)N[C@H]1CC[C@@H](Nc2nccc(N(C)C)n2)CC1 [compound 316] | 3 (Class 3 The value of percent of control at 10^−7 M was more than 60% or the value of IC50 was more than 200 nM.) |
| CN(C)c1ccnc(N[C@H]2CC[C@@H](NC(=O)C3(c4ccc(Cl)cc4)CCCC3)CC2)n1 [compound 317] | 2 (Class 2: The value of percent of control at 10^−7 M was from 40% to 60% or the value of IC′50 was from 50 nM to 200 nM.) |
